Data as given in patent publication US8652787B2, “Use of ERBB4 as a prognostic and therapeutic marker for melanoma” (The United States of America, as represented by the …, priority 2008, dated 2014).
“Also recorded” adds a separate entry of the source.

Tests used:
[1] = target: ERBB2 (P-Y1248) (Homo sapiens, UniProt P04626); test: Immunoprecipitation and western blot of ERBB2 phosphorylation in lapatinib-treated melanoma cells; format: cell-based; conditions: 1 hour, 5 μM lapatinib
Protocol: (§1) Cells were treated for 72 hours in the presence of increasing concentrations (0.01-30 μM) of lapatinib, and relative cell number was estimated by methylene blue protein staining and plotted as percent survival when compared to vehicle-treated control versus Log (lapatinib) nM (where 1 is 10 nM lapatinib). Fitted lines were generated using 4-parameter nonlinear regression via GraphPad Prism. […] The IC50 values for inhibition of cell growth by 72 hour treatment with lapatinib of a larger panel of lines harboring WT and mutant ERBB4 were analyzed using GraphPad Prism v.5 (n=3). (C) Immunoprecipitation and western blot analysis of ERBB4 autophosphorylation in cells treated with lapatinib. Cells were treated for 1 hour with lapatinib or vehicle alone as control. […] The activity of ERBB4, AKT and ERBB2 was determined by immunoblotting with phospho-specific antibodies. […] Lysates and immunoprecipitates were analyzed by western blotting using the indicated antibodies. […] (E) Quantitative assessment of data from 2 cell lines harboring WT ERBB4 and 3 cell lines harboring mutant ERBB4 that were performed similarly to (D). […] (G) Quantitation of FACS-sorted lapatinib-treated cells. The percent apoptotic cells were determined based on the sub-G1 population for vehicle-treated cells or lapatinib-treated cells.

[2] = system: AKT (P-S473); test: Western blot of AKT phosphorylation in lapatinib-treated melanoma cells; format: cell-based, human; conditions: 1 hour, 5 μM lapatinib
Protocol: as §1

[3] = system: melanoma cell lines harboring mutant ERBB4; test: Growth inhibition of melanoma cell lines by lapatinib (72 h, methylene blue staining / SYBR Green I); format: cell-based, human
Protocol: as §1

[4] = system: ERK1 and ERK2; test: Western blot of ERK1/2 phosphorylation in lapatinib-treated melanoma cells; format: cell-based, human; conditions: 72 hours, 5 μM lapatinib; P-ERK1/ERK1, P-ERK2/ERK2
Protocol: FIG. 14: Effect of lapatinib in ERK1/2 signaling pathways. […] Cells were treated for 72 hours with 5 μM lapatinib or vehicle as control. The activity of ERK1 and ERK2 was determined by immunoblotting with phospho-specific antibodies. Total ERK protein was also determined by immunoblotting. Shown are representative blots. (B) Quantitative assessment of data from one melanoma cell line harboring mutant ERBB4. The ratio of band intensities of P-ERK1/ERK1 or P-ERK2/ERK2 was analyzed for each melanoma cell line.
Transfected cells were washed 3× in PBS and lysed using 0.5 ml 1% NP-40 lysis buffer (1% NP-40, 50 mM Tris-HCl pH 7.5, 150 mM NaCl, complete protease inhibitor tablet, EDTA-free (Roche, Indianapolis, Ind.), 1 μM sodium orthovanadate, 1 mM sodium fluoride, and 0.1% β-mercaptoethanol) per T-75 flask for 20 minutes on ice. Lysed cells were scraped and transferred into a 1.5 mL microcentrifuge tube. Extracts were centrifuged for 10 minutes at 14,000 rpm at 4° C. […]
Scanned films from western blot analysis of SDS-PAGE were analyzed using ImageJ (NIH software). Individual bands were quantitated and plots were generated to determine the intensities in each band. The data was then exported to Microsoft Excel and analyzed further for phospho:total ratios of protein.

[5] = system: ERBB4 (P-Y1162); test: Immunoprecipitation and western blot of ERBB4 autophosphorylation in lapatinib-treated melanoma cells; format: cell-based, human
Protocol: as §1

[6] = system: melanoma cells harboring mutant ERBB4 or WT ERBB4; test: Flow cytometry (PI staining) of the sub-G1 apoptotic population after lapatinib; format: cell-based, human; conditions: 72 hours, 5 μM lapatinib, FACS
Protocol: as §1

Chain of ERBB2 (P-Y1248) (P04626 23-1255): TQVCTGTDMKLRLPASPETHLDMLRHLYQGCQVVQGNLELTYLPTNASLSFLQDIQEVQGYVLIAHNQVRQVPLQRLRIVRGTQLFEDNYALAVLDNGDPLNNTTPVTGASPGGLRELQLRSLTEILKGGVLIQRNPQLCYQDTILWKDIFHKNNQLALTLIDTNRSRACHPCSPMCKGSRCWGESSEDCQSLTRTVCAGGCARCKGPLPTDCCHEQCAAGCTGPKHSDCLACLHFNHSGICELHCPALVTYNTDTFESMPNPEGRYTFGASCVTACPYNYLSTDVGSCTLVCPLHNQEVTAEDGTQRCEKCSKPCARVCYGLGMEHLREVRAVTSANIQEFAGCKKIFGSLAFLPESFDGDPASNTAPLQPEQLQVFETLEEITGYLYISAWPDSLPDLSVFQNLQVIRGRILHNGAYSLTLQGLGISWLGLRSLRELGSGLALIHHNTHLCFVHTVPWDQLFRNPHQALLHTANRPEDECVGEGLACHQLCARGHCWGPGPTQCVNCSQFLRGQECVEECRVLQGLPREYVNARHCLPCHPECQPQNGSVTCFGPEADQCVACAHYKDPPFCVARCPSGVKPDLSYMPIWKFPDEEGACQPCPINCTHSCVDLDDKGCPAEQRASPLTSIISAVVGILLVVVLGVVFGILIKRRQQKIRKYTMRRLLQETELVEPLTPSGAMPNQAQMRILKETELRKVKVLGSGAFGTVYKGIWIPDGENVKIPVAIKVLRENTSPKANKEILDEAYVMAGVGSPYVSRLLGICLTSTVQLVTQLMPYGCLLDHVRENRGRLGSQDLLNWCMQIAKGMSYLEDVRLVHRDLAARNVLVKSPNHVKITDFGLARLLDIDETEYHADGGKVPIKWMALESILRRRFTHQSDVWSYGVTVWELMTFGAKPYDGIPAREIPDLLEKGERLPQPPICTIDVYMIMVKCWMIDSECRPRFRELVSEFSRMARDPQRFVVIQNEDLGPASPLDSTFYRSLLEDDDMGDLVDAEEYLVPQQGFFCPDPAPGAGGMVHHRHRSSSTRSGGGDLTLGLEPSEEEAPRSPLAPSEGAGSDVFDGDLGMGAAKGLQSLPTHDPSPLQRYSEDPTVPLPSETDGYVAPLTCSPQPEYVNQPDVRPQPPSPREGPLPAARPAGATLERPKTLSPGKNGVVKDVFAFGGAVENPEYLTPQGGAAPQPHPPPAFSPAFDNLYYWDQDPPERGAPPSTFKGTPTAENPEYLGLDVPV

## CS(=O)(=O)CCNCc1ccc(-c2ccc3ncnc(Nc4ccc(OCc5cccc(F)c5)c(Cl)c4)c3c2)o1 [lapatinib]
[1]
  inhibition of ERBB2 in melanoma cell lines: No inhibition
[2]
  inhibition of AKT activation in cells harboring mutant ERBB4: specific inhibition of ERBB4 and AKT activation
[3]; 72 hours, 0.01-30 μM lapatinib, compared with cells containing endogenous WT ERBB4
  reduction of cell proliferation / sensitivity to lapatinib, ERBB4 mutant versus WT ERBB4 melanoma cells: increased sensitivity to lapatinib compared to WT ERBB4 cell lines; also recorded: reduced cell proliferation to a greater extent in cells containing endogenous ERBB4 mutations
[3]; IC50 for inhibition of cell growth, 72 hour treatment, n=3
  fold greater sensitivity to lapatinib (from IC50) of melanoma cells harboring ERBB4 mutations than cells with WT receptor: 10- to 250 fold
[4]
  inhibition of ERK activation: slightly inhibited; also recorded: increased lapatinib sensitivity with respect to ERK1 and ERK2 phosphorylation
[5]; 1 hour, 5 μM lapatinib, (P-Y1162)-ERBB4/ERBB4
  inhibition of ERBB4 activation in cells harboring mutant ERBB4: specific inhibition of ERBB4 and AKT activation
[5]; cells treated for 1 hour with lapatinib, α-P-ERBB4 (Y1162)
  inhibition of ERBB4 receptor autophosphorylation: inhibited receptor autophosphorylation in a dose-dependent manner
[6]
  apoptosis (sub-G1 population) of melanoma cells harboring mutant ERBB4 compared to WT ERBB4 lines: increased sub-G1 population
[6]; listed as Lapatinib
  apoptosis (sub-G1 population) of melanoma cells harboring mutant ERBB4 compared to WT ERBB4 lines: markedly increased apoptosis
